Results as given in patent publication US20110111016A1, “NON-DNA BASE-CONTAINING POLYNUCLEOTIDE COMPOSITIONS AND THEIR USE FOR THE MODULATION OF IMMUNE RESPONSES” (priority 2009, published 2011).

Legend:
human TLR7 = target: T1, human TLR7 (Homo sapiens, UniProt Q9NYK1); test: NF-κB activation (secreted alkaline phosphatase reporter) in HEK293 cells expressing human TLR7; type: cell-based; conditions: HEK293/TLR7 cell line; polynucleotide final concentration 10 μg/mL; 16-20 hours
T1 construct: host or cells: HEK293
T1 sequence (Q9NYK1 27-1049): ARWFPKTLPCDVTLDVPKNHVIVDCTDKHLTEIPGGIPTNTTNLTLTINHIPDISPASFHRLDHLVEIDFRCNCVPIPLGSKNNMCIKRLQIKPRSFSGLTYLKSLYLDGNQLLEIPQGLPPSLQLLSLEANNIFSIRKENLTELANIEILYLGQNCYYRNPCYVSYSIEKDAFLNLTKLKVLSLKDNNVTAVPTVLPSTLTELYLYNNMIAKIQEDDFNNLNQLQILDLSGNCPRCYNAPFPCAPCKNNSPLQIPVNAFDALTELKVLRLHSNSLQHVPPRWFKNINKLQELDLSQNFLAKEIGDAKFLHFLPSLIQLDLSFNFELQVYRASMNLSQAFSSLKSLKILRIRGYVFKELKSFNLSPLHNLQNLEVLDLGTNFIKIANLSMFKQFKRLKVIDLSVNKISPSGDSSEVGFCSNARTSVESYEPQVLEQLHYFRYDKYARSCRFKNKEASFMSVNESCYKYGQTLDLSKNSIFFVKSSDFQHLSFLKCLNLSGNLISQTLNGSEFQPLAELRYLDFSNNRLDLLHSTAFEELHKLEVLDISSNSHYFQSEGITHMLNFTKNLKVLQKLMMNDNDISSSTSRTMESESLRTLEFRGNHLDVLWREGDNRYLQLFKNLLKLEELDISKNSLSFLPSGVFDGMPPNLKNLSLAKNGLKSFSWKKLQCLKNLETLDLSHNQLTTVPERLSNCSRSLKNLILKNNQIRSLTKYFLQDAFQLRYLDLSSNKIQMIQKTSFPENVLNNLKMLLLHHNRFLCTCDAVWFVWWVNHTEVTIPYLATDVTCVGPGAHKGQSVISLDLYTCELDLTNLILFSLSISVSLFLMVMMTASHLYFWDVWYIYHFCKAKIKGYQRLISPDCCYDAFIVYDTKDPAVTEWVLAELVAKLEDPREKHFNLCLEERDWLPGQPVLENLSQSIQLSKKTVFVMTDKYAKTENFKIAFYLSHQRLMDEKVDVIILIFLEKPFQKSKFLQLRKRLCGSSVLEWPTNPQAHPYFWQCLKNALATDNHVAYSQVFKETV
Method: Toll-like receptors (TLR) are known to interact with a number of natural and synthetic molecules that can function as immune adjuvants. Examples of these molecules are Poly (I:C) polynucleotides, lipopolysaccharide and CpG-containing polynucleotides. […] TLR engagement was determined by measurement of secreted alkaline phosphatase, under the control of a reporter inducible by NF-κB. Appropriate positive controls were used for each TLR. The non-DNA base-containing polynucleotides were dissolved in sterile water at a concentration of 100 μg/mL, and used at a final concentration of 10 μg/mL. HEK293 cells containing the appropriate TLR and NF-κB reporting system (InvivoGen, San Diego, Calif., USA) were placed in wells of 96 well plates (25,000-50,000 cells, in a final volume of 200 μL medium designed for the detection of NF-κB induced secreted alkaline phosphatase expression), and incubated with non-DNA base-containing polynucleotides or positive controls for 16-20 hours. TLR activating activity was determined by measurement of absorbance at 650 nm wavelength using a Coulter AD340C absorbance detector. The results shown are expressed as Optical Density (OD).

human PBMC = test: Induction of cytokines and chemokines from human PBMC, comparison with CpG polynucleotides (Milliplex MAP kit); type: cell-based; conditions: for Cytokine, IL-6 / Cytokine, IL-10 / Cytokine, MCP-1 / Cytokine, RANTES (CCL5): human PBMC culture supernatant, 48 h, final concentration 10 μg/mL; for Chemokine (MCP-1, RANTES) inducing activity towards human PBMC (in words) / Interleukin (cytokine) inducing activity towards human PBMC (in words): in comparison to LPS and MCC, Table 14
Method: LPS and MCC were included as positive controls as described in Example 7. PBMC were isolated from whole blood using standard Ficoll-Paque Plus (GE Healthcare Life Sciences, Baie d'Urfé, QC, Canada) gradient centrifugation, and placed in tissue culture plates at a concentration of 1×10^6 cells/mL (total volume: 1 mL in RPMI 1640 medium containing 10% heat-inactivated FBS (both from Wisent, St-Bruno, QC, Canada) and 50 μg/mL gentamycin sulfate (Sigma-Aldrich Canada, Oakville, ON, Canada). Non-DNA base-containing polynucleotide SEQ ID NOs: 1, 2, 3, 4, 5, 6, 7, 8 and 9 were added to separate wells to give a final concentration of 10 μg/mL, LPS was added to give a final concentration of 10 μg/mL, and the non-CpG 4010, CpG 2336, CpG 2429 and CpG 7909 polynucleotides, SEQ ID NOs: 31, 33, 35 and 34, respectively, were added to give a final concentration of 10 μg/mL.
The cells were then cultivated for 48 h. Cytokines (interleukins IL-6 and IL-10, chemokines MCP-1 and RANTES) in the culture supernatant were measured using a Milliplex™ MAP kit (Millipore Corporation, Billerica, Mass., USA) on a Bio-Plex 200 system (Bio-Rad Laboratories, Hercules, Calif., USA). MCP-1, also known as monocyte chemotactic protein, is an essential chemokine required for effective monocyte and myeloid dendritic cell activation and trafficking across endothelial and epithelial barriers (see for example Henkel et al, 2004 Ann. Neurol. 55:221-235), and RANTES (Regulated on Activation, Normal T cell Expressed and Secreted, now more commonly known as CCL5) is produced by memory phenotype T cells and is chemotactic for and activates T-cells (see for example Swanson et al, 2002 Immunity 17:605-615).

UUGTUU [SEQ ID NO: 2]
TLR activation, Optical Density at 650 nm, hHTR7 (human TLR7): 0.090
Cytokine, IL-6 (human PBMC): 6 pg/mL
Cytokine, IL-10 (human PBMC): 0 pg/mL
Cytokine, MCP-1 (human PBMC): 196 pg/mL
Cytokine, RANTES (CCL5) (human PBMC): 66 pg/mL
Chemokine (MCP-1, RANTES) inducing activity towards human PBMC (in words) (human PBMC): marginal or no
Interleukin (cytokine) inducing activity towards human PBMC (in words) (human PBMC): marginal or no

NebGGTGNeb (DNA NGGTGN; Nebularine at both ends, sugar and linkages not given here, further chemistry not given here) [SEQ ID NO: 1, 5′-OH, 3′-OH non-DNA base-containing polynucleotide]
TLR activation, Optical Density at 650 nm, hHTR7 (human TLR7): 0.097
Cytokine, IL-6 (human PBMC): 26 pg/mL
Cytokine, IL-10 (human PBMC): 0 pg/mL
Cytokine, MCP-1 (human PBMC): 160 pg/mL
Cytokine, RANTES (CCL5) (human PBMC): 93 pg/mL
Chemokine (MCP-1, RANTES) inducing activity towards human PBMC (in words) (human PBMC): marginal or no
Interleukin (cytokine) inducing activity towards human PBMC (in words) (human PBMC): marginal or no

IIGTII [SEQ ID NO: 3]
TLR activation, Optical Density at 650 nm, hHTR7 (human TLR7): 0.093
Cytokine, IL-6 (human PBMC): 1 pg/mL
Cytokine, IL-10 (human PBMC): 0 pg/mL
Cytokine, MCP-1 (human PBMC): 57 pg/mL
Cytokine, RANTES (CCL5) (human PBMC): 72 pg/mL
Chemokine (MCP-1, RANTES) inducing activity towards human PBMC (in words) (human PBMC): marginal or no
Interleukin (cytokine) inducing activity towards human PBMC (in words) (human PBMC): marginal or no
